# According to patent US9655965B2, “Radiosensitizer compounds for use in combination with radiation” (priority 2013, dated 2017):
# Entries after “also recorded” stand apart in the source; their conditions may differ.
# Legend:
# [1] = test system: human cervical cancer (ME-180) cells; experiment: In vitro radiosensitizing effect, MTT assay 6 days after X-ray, ME-180; type: cell-based
# Excerpt: Dibromo-diamino-benzene (Dibromo-phenylenediamine, Compound B) was obtained from TCI—America. Diiodo-diaminobenzene (Compound C) were synthesized, purified and crystallized in our laboratory, and the structures and purity were examined by NMR and mass spectrometry. MEM and fetal bovine serum (FBS), penicillin G and streptomycin were obtained from Hyclone Laboratories (UT, USA). Stock solution of cisplatin was freshly prepared in ultrapure water or saline, and stock solutions of Compounds A, B, C, D were prepared in pure ethanol, where the final concentration of ethanol was ≦1% when treated to cells.
# A human skin diploid fibroblast (GM05757 cell line) was obtained from the Coriell Cell Repository directly, while the human cervical cancer cell line (HeLa, ATCC#: CCL-2; or ME-180), human ovarian cancer cell line (NIH:OVCAR-3, ATCC#: HTB-161) and human lung cancer cell line (A549, ATCC#: CCL-185™), together with RPMI 1640, F-12K, McCoy's 5 A and L-15 culture media, were obtained from the American Type Culture Collection (ATCC) directly. Fetal bovine serum (FBS) was obtained from Hyclone Laboratories (UT, USA). The GM05757 normal cells and HeLa cells were cultivated with MEM (Hyclone) supplemented with 10% FBS, 100 units/mL penicillin G and 100 μg/mL streptomycin (Hyclone). The complete growth media for ME-180, NIH:OVCAR-3, A549 and MDA-MB-231 cells were the ATCC-formulated McCoy's 5 A Medium supplemented with 10% FBS, RPMI 1640 medium with 20%, F-12K medium with 10% FBS, and L-15 Medium (Leibovitz) with 10% FBS, respectively. The cells were maintained at 37° C. in a humidified atmosphere containing 5% CO2.
# The radiosensitizing effects of RSCs on cell viability were determined by the 3-[4,5-dimethylthiazol-2-yl]-2,5-diphenyl tetrazoliumbromide (MTT) assay. Cells were cultured in 96-well plates (5×10^3 cells/well) for 24 h. The culture medium was replaced by fresh culture medium and incubated for 12 h with varying drug concentrations. The cells were then irradiated by 225 kV X-ray (PRECISION X-RAD IR 225) at a dose rate of 2 Gy/min with various X-ray doses. After irradiation, the cells were incubated for 6 days. The MTT assay of cell viability was then conducted. Briefly, 100 μl new medium without phenol red containing 1.2 mM MTT (sigma) (i.e., adding 10 μl 12 mM MTT stock solution in PBS) were added to each well and incubated for 4 h. The medium was then removed, and the formazan crystals solubilized by 100 μL/well DMSO (or alternatively by 100 μl/well SDS and incubated for another 4 h). The surviving fraction was determined by measuring the absorbance at 540 nm (570 nm for SDS solubilization) using a Multiskan Spectrum UV/Vis microplate reader (Thermo Scientific), which is directly proportional to the number of viable cells.
# [2] = test system: human cervical cancer (ME-180) xenograft; experiment: Xenograft mouse tumor model of human cervical cancer (ME-180) in female SCID mice; type: in vivo
# Procedure: The four groups in the experiment were: (1) control article (5% EtOH/medium); (2) 15 Gy X-ray irradiation; (3) Compound B at 7 mg/kg in 5% EtOH/medium and (4) Compound B at 7 mg/kg in 5% EtOH/medium plus 15 Gy X-ray irradiation, as shown in Table 2.
# ME-180 (human cervical cancer) cells were cultured in the ATCC-formulated McCoy's 5 A Medium supplemented with 10% FBS. The cells in a flask were maintained at 37° C. in a humidified atmosphere containing 5% CO2. The cells were rinsed with PBS, trypsined for detachment from the bottom of the flask, mixed with fresh growth medium, and centrifuged to remove the supernatant. The cells were re-suspend with fresh medium to appropriate concentration for inoculation. Injection volume was 50 μl (1×10^6 cells) per animal.
# ME-180 tumour cells were implanted subcutaneously into female SCID mice (age 6-8 weeks) in a volume of 50 μL into the left gastrocneumius muscle using a 27-gauge needle. This was established as a subcutaneous (SC) xenograft mouse model of human cervical cancer.
# Mice were individually weighed and injected intraperitoneally according to body weight for an injection concentration as outlined in the study group table above. The injection volume was based on 200 μL per 20 g mouse. The skin surface was wiped down with 70% isopropyl alcohol to clean the injection site. Radiation was given using X-rad 225 targeted irradiator to the tumors.
# Tumor size was measured as a function of time to assess tumor growth delay associated with treatment using slide caliper and […]. Animals were also weighed at the time of tumour measurement. Tumours in mice were allowed to grow to a maximum of 1000 mm^3 before termination.
# [3] = test system: plasmid DNA [pGEM 3Zf(−)]; experiment: Agarose gel electrophoresis of ionizing-radiation-induced damage to plasmid DNA; type: biochemical, Escherichia Coli JM 109; details: 200 μM compound; two-UV-photon ionizing radiation of water; versus pure water
# Excerpt: Ultrapure water for life science with a resistivity of >18.2 MΩ/cm and TOC<1 ppm obtained freshly from a Barnstead Nanopure water system was used. Dibromo-diamino-benzene (Dibromo-phenylenediamine, Compound B) was obtained from TCI-America, while other chemicals and buffer compositions were obtained from Sigma-Aldrich. Plasmid DNA [pGEM 3Zf(−), […]] was extracted from Escherichia Coli JM 109 and purified using QIAprep Kit (Qiagen).
# The pump beam at 322 nm, identical to that for fs-TRLS measurements, was used to produce radicals via two-photon excitation of water in DNA solutions. The laser beam was focused into a quartz cell containing 3.0 μg of DNA in 200 μL of buffer solutions. The solutions were stirred during irradiation to produce uniform DNA damage throughout the samples. Aliquots equivalent to 96 ng DNA were removed from the sample cell in various irradiation times for gel electrophoresis. All aliquots were analyzed with a standard agarose gel electrophoresis method, namely, on 1% neutral TAE agarose gel in TAE running buffer. The gel was prestained with 0.5 μg/ml ethidium bromide. […] They were quantified with an AlphaEase FC software.
smiles,measurement,setting,value
"Nc1cc(Br)c(Br)cc1N [Compound B, 4,5-dibromo-1,2-phenylenediamine]",enhancement of radiosensitivity of cancer cells to X-ray,"[1]; ME-180, 12-hr treatment, 0-10 Gy 225 keV X-ray, MTT at 6 days",significant enhancement in the radiosensitivity
same,killing of cancer cells,"[1]; ME-180, 50 Gy x-ray with about 100 μM compound, about 20% survived without any RSC",early all cancer cells were killed
same,suppression of tumor growth,"[2]; 7 mg/kg IP 1 hr prior to 15 Gy 225 keV x-ray, versus radiation or compound only",significantly enhanced the suppression of tumor growth
same,tumor growth delay,"[2]; 7 mg/kg plus 15 Gy x-ray, single doses",very significant tumor growth delay in vivo till 21 days
same,shrinkage of the tumor,"[2]; 7 mg/kg plus 15 Gy x-ray, tumor volumes and MRI, Day 21",significant shrinkage of the tumor in mice; also recorded: most significant shrinkage of the tumor in mice
same,radiation-induced DNA double-strand breaks (DSBs),[3],significantly enhanced; also recorded: significant enhancement of DSBs
